The test deals with medium spiny neurons (MSNs) in the nucleus accumbens. Put plainly: Brain slice patch-clamp: intrinsic excitability and passive properties of MSNs. It is filed as cell-based, male C57BL6/J mice. As to the method: Brain slices from male C57BL6/J mice aged 28–45 days were prepared to contain the nucleus accumbens (NAc). Mice were anesthetized with Isoflurane (Baxter, Deerfield, IL) and brains extracted following decapitation. Brains were sliced with a vibratome (Leica Microsystems, Wetzlar, Germany) to achieve 300 μm coronal slices. Brains sliced in extracellular salts; consisting of the following (mM): Tris‐HCl 72, Tris‐Base18, NaH2PO4 1.2, KCl 2.5, HEPES 20, sucrose 20, NaHCO3 25, glucose 25, MgSO4 10, Na‐pyruvate 3, Na‐ascorbate 5 and CaCl2 0.5 (Sigma‐Aldrich, St. Louis, MO); 300–310 mOsm, pH 7.4 and was continuously oxygenated (mixture of 95%/5% O2/CO2). Slices were then placed in a 32°C recovery chamber with freshly prepared tris‐based aCSF for 15 min before transfer to a 32°C chamber of standard aCSF consisting of the following extracellular salts (mM): NaCl 123.9, KCl 3.1, glucose 10, MgCl2 1, CaCl2 2, NaHCO3 24, and NaH2PO4 1.16 (Sigma‐Aldrich, St. Louis, MO); 300–310 mOsm, pH 7.4 and continuously oxygenated (mixture of 95%/5% O2/CO2). Finally, slices were equilibrated at RT for at least 45 min. DMSO and/or FLPK were added to standard aCSF to achieve a bath concentration of 0.1% DMSO and 50 μM FLPK. Brain slices were incubated in a separate chamber with standard aCSF containing 0.1% DMSO (control) or 50 μM FLPK and continuously oxygenated for 30 min. Somatic recordings from NAc visually identified medium spiny neurons (MSNs) in standard aCSF were carried out at 31°C using borosilicate glass pipettes (resistance of 3–5 MΩ) filled with an internal solution containing (mM): D‐gluconate (potassium salt) 145, MgCl2 2, EGTA 0.1, Na2ATP 2, and HEPES 10 (pH 7.2; 290 mOsm). Either an Axopatch 200B or a Multiclamp 700B amplifier was used to perform whole‐cell patch clamp experiments. For the Axopatch 200B, a digidata 1,200 analog–digital interface and pClamp 9 software with filtering at 20 kHz and digitizing at 5 kHz were used for data acquisition and stimulation. For the Multiclamp 700B, a digidata 1,350 analog‐digital interface and pClamp 10.9 with filtering at 20 kHz and digitizing at 5 kHz were used for data acquisition and stimulation. First a giga‐seal was formed and the cell membrane ruptured after which MSNs were held in […] for 1 min to measure resting membrane potential. Next, MSNs were held in current clamp mode to assess cell activity. Evoked action potentials with a range of current injections from 10 pA to 220 pA with 800 ms every 10 pA were measured and number of action potentials, instantaneous frequency, and other electrical parameters were determined. Average instantaneous firing frequency (IFF) is defined as the average of all reciprocal interspike intervals (ms) at a particular current step. Cells with a current threshold above 180 pA, a resting membrane potential above −60 mV, and an input resistance outside the range of 70–250 MΩ were excluded. To isolate persistent Na^+ current (I NaP) in whole‐cell voltage‐clamp recordings, we used a modified aCSF containing 20 mM tetraethylammonium chloride (TEA) and 0.3 mM CdCl2. The voltage‐dependence of I NaP was determined using standard protocols (Yue, Remy, Su, Beck, & Yaari, 2005). Membrane capacitances and Rseries were compensated electronically. Series resistances (Rs) before compensation were in the range of 5–20 MΩ and were routinely corrected by 75%–85%. Data obtained from a given cell were rejected if Rs was larger than 20 MΩ or changed by > 20% during the course of the experiment. Membrane capacitance was calculated using the equation: capacitance = membrane time constant/input resistance (Meitzen, Weaver, Brenowitz, & Perkel, 2009). The membrane input resistance was measured by a series of 600 ms hyperpolarizing current steps from −50 to 0 pA, step 10 pA with 1 s interval. The slope of the current‐voltage curve was designated as the membrane input resistance. […]
(In patch-clamp work, channel activity is measured electrically.)

Entries after “also recorded” stand apart in the source; their conditions may differ. Peptide text beside a SMILES is read from it.

Consider `CC(=O)N[C@@H](Cc1ccccc1)C(=O)N[C@@H](CC(C)C)C(=O)N1CCC[C@H]1C(=O)N[C@@H](CCCCN)C(N)=O` [FLPK] (Ac-FLPK-NH2), for which the “effect on MSN firing and passive properties” value (50 µM FLPK vs 0.1% DMSO) was “significantly increased the number of evoked action potentials and the instantaneous firing frequency; also recorded: no changes in several other electrophysiological parameters including membrane potential and input resistance; also recorded: increase in the total number of action potentials as well as instantaneous firing frequency”. For the same compound, for the setting “50 µM FLPK, 30 min incubation, mean ± SEM, n = 5–12, DMSO 16.1 ± 2.1, p = .157”, the “Tau (τ), membrane time constant” value is 11.9 ± 1.6 ms. Further, where the note is “50 µM FLPK, 30 min incubation, mean ± SEM, n = 5–12, DMSO 90.2 ± 14.5, p = .521”, the Cm worked out at 80.1 ± 7.6 pF. For the same compound, the Ithr (50 µM FLPK, 30 min incubation, mean ± SEM, n = 5–12, DMSO 110 ± 14.2, p = .221) is 78 ± 18.3 pA. In addition, for the setting “50 µM FLPK, 30 min incubation, mean ± SEM, n = 5–12, DMSO 119.1 ± 10.3, p = .088”, the Rin was determined as 147.2 ± 11.3 MΩ. The same compound displayed a Vthr (50 µM FLPK, 30 min incubation, mean ± SEM, n = 5–12, DMSO −40.5 ± 1.1, p = .422) of −38.7 ± 2.2 mV. The compound also registered an RMP (50 µM FLPK, 30 min incubation, mean ± SEM, n = 5–12, DMSO −75.3 ± 1.5, p = .125) of −79.7 ± 2.6 mV. For the same compound, the “number of evoked action potentials” value (50 µM FLPK, current step 180 pA, n = 7, DMSO 14.9 ± 2.3, n = 14, p < .016) was 23.7 ± 1.2. The compound further gave an instantaneous firing frequency (50 µM FLPK, current step 180 pA, n = 7, DMSO 19.7 ± 2.6 Hz, n = 14, p < .0395) of 28.6 ± 2.1 Hz.

For the origin of these results see PMC7363588, “Mapping of the FGF14:Nav1.6 complex interface reveals FLPK as a functionally active peptide modulating excitability” (Physiological Reports, 2020).
